The structures appear in SMILES notation. Bridge positions count the residues as written; N and C are the ends. Peptide text beside a SMILES is read from it.

From PMC6628435, “Chemical Synthesis, Proper Folding, Nav Channel Selectivity Profile and Analgesic Properties of the Spider Peptide Phlotoxin 1” (Toxins, 2019) come the findings set out here.

Test [1] has as its system para/tipE. The test can be described thus: Two-electrode voltage-clamp on Xenopus laevis oocytes expressing insect Nav channel para/tipE. Format: cell-based, Fruit fly. The note with it: 1 µM; voltage of maximum sodium influx, holding −90 mV; oocytes TEVC; n ≥ 3. The source says: (§1) Using the two-electrode voltage-clamp technique on Xenopus laevis oocytes, the effect of PhlTx1 was also compared on eight different cloned vertebrate Nav channels co-expressed with the β1 subunit (Nav1.1-1.8/β1) and on the neuronal insect Nav channel, para, co-expressed with the tipE subunit (Figure 3 and Figure 4). […] Normalized current-voltage relationships (I-V curve) of Nav1.2/β1 and Nav1.3/β1 channels seemed to be shifted towards more negative potentials when PhlTx1 was applied, but shifts were not statistically significant […] (Figure 4). The activation phase of the other studied Nav channel subtypes was not affected. No obvious alteration in channel availability was observed, except a 5-mV negative shift for Nav1.3/β1, although that was also non-significant (p > 0.05).
(§2) Figure 4 1 µM of PhlTx1 was tested on Nav1.1/β1, Nav1.2/β1, Nav1.3/β1, Nav1.4/β1, Nav1.5/β1, Nav1.6/β1, Nav1.8/β1 and para/tipE (n ≥ 3). Left column: current traces were evoked by a 50-ms depolarization to the voltage of maximum sodium influx, depending on the Nav studied, from a holding potential of −90 mV. At 1 µM PhlTx1, all studied Nav channels, except Nav1.4/β1, were blocked for about 10% (no toxin: *). The current of Nav1.4/β1 was reduced for about 35 ± 5%. Middle column: normalized I-V curves reveal no significant shift of the activation voltage (p > 0.05). […]

In test [2] the test system is Nav1.5/β1. The test can be described thus: Two-electrode voltage-clamp on Xenopus laevis oocytes expressing Nav1.5/β1. Format: cell-based. The note with it: 1 µM; voltage of maximum sodium influx, holding −90 mV; oocytes TEVC; n ≥ 3.
Description: as §1, §2
Background: In two-electrode clamp one electrode senses voltage and the other passes current.

`CC(C)C[C@@H]1NC(=O)[C@@H](NC(=O)[C@H](C)N)CSSC[C@@H]2NC(=O)[C@@H]3CSSC[C@@H](C(=O)N[C@@H](CCCNC(=N)N)C(=O)N[C@@H](Cc4ccc(O)cc4)C(=O)N[C@@H](CCCCN)C(=O)N[C@@H](CC(C)C)C(=O)N[C@@H](Cc4ccccc4)C(=O)O)NC(=O)[C@H](Cc4c[nH]c5ccccc45)NC(=O)[C@@H]4CCCN4C(=O)[C@H](Cc4ccc(O)cc4)NC(=O)[C@H](CCCCN)NC(=O)[C@H](Cc4c[nH]c5ccccc45)NC(=O)[C@H](CCC(=O)O)NC(=O)[C@H](CSSC[C@H](NC(=O)[C@H](CO)NC(=O)[C@H](CC(=O)O)NC(=O)[C@H](Cc4c[nH]c5ccccc45)NC(=O)[C@H](CCC(N)=O)NC(=O)CNC1=O)C(=O)N[C@@H](CC(=O)O)C(=O)N1CCC[C@H]1C(=O)N[C@@H](CCCCN)C(=O)N[C@@H](C)C(=O)N[C@@H](CO)C(=O)N[C@@H](CCCCN)C(=O)N3)NC(=O)[C@H](C)NC(=O)[C@H](Cc1ccc(O)cc1)NC(=O)[C@H](CC(N)=O)NC(=O)[C@@H]1CCCN1C2=O` [PhlTx1, Phlotoxin-1] (H-ACLGQWDSCDPKASKCCPNYACEWKYPWCRYKLF-OH; disulfide 2-17, 9-22, 16-29; N-terminus and C-terminus assumed): the “block of sodium current” value in test [1] and in test [2] was “about 10%” in each case.
